The target in the test is T1, EfCdaA (Enterococcus faecium, UniProt Q3Y0C9).
T1 construct: gene dacA; N-terminally truncated soluble DAC domain; codon-optimized synthetic DNA, pET-28a, E. coli Rosetta (DE3); tag cut with PreScission
T1 sequence (Q3Y0C9 121-269): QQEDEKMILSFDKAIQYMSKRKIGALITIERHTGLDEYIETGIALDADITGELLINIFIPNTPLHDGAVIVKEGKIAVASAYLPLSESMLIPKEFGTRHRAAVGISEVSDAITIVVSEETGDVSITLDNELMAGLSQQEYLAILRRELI
The test can be described thus: ITC, […] binding model. Particulars: 25 C, pH 7.5, 20 mM Tris-HCl, 300 mM NaCl, 5% DMSO, 10 mM MgCl2. (Isothermal titration calorimetry measures the heat released or taken up as one component is titrated into another.)

Data on two compounds can be found in paper PMC11376277, “Crystallographic fragment screen of the c-di-AMP-synthesizing enzyme CdaA from Bacillus subtilis” (Acta Crystallographica Section F: Structural Biology …, 2024).

Usually pKd stands for the negative decadic logarithm of the Kd, by convention in mol/L. Read a high pKd as a low Kd.

pKd: −log10 of the molar value.

With `Nc1ncnc2c1ncn2[C@@H]1O[C@H](COP(=O)(O)OP(=O)(O)OP(=O)(O)O)[C@@H](O)[C@H]1O` [ATP], the negative logarithm of the Kd (pKd) is 3.63.

`CC(C)OC(=O)OCOP(=O)(CO[C@H](C)Cn1cnc2c(N)ncnc21)OCOC(=O)OC(C)C` [tenofovir disoproxil] gave a negative logarithm of the Kd (pKd) of 5.10.
